These molecules were tested on southern crabgrass (assay: Test Example 5: herbicidal effect by foliage application, plastic box (Table 20, symbol F)). Settings: foliage application, 320 g/ha, evaluated three weeks after application.
Type: in vivo, southern crabgrass (Digitaria ciliaris)
Procedure, shortened: (§1)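 Foliar spray test: emulsion formulation diluted in water to a set application rate, sprayed onto 14-day-old plants raised in diluvial soil at 25° C to 30° C under glass. Both herbicidal effect and crop effect rated visually three weeks later.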

Q: For `CCCC(=O)Oc1c(C)nn(C)c(=O)c1-c1c(-c2ccccc2Cl)sc2ccc(F)cc12` [2-204], which “herbicidal effect on F: southern crabgrass (criteria 0-5)” value is on record?
A: Its value is 0 (Herbicidal rate of 5% or less (almost no effect)).

Each molecule was assayed on Italian ryegrass (assay: Test Example 5: herbicidal effect by foliage application, plastic box (Table 20, symbol K)). Settings: foliage application, 320 g/ha, evaluated three weeks after application.
Type: in vivo, Italian ryegrass (Lolium multiflorum)
Procedure, shortened: as §1

Q: How did the “herbicidal effect on K: Italian ryegrass (criteria 0-5)” value turn out when `CCCC(=O)Oc1c(C)nn(C)c(=O)c1-c1c(-c2ccccc2Cl)sc2ccc(F)cc12` [2-204] was run?
A: Its value is 3 (Herbicidal rate of 40% or more and less than 70%).

What follows are molecules tested on redroot pigweed (assay: Test Example 4: herbicidal effect by soil treatment (Table 19, symbol N)). Settings: amount of applied herbicide 320 g/ha.
Type: in vivo, redroot pigweed (Amaranthus retroflexus)
Procedure, shortened: (§2)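 Step 1: sow seeds in sterilized diluvial soil, cover ~1.5 cm. Step 2: spray diluted emulsion onto soil surface at predetermined rate. Step 3: greenhouse, 25–30° C, three weeks. Step 4: grade effect on each plant by earlier criteria.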

Q: Which “N: redroot pigweed, herbicidal effect rating” value does the source give for `CCCC(=O)Oc1c(C)nn(C)c(=O)c1-c1c(-c2ccccc2Cl)sc2ccc(F)cc12` [2-204] here?
A: Its value is 2 (Herbicidal rate of 20% or more and less than 40%).

The molecules below were run on lambsquarters (assay: Test Example 4: herbicidal effect by soil treatment (Table 19, symbol O)). Settings: amount of applied herbicide 320 g/ha.
Type: in vivo, lambsquarters (Chenopodium album)
Procedure, shortened: as §2

Q: Which “O: lambsquarters, herbicidal effect rating” value does the source give for `CCCC(=O)Oc1c(C)nn(C)c(=O)c1-c1c(-c2ccccc2Cl)sc2ccc(F)cc12` [2-204] here?
A: Its value is 0 (Herbicidal rate of 5% or less (almost no effect)).

Each molecule was assayed on velvetleaf (assay: Test Example 4: herbicidal effect by soil treatment (Table 19, symbol M)). Settings: amount of applied herbicide 320 g/ha.
Type: in vivo, velvetleaf (Abutilon theophrasti)
Procedure, shortened: as §2

Q: Which “M: velvetleaf, herbicidal effect rating” value does the source give for `CCCC(=O)Oc1c(C)nn(C)c(=O)c1-c1c(-c2ccccc2Cl)sc2ccc(F)cc12` [2-204] here?
A: The value was 0 (Herbicidal rate of 5% or less (almost no effect)).

These molecules were tested on wild oat (assay: Test Example 5: herbicidal effect by foliage application, plastic box (Table 20, symbol I)). Settings: foliage application, 320 g/ha, evaluated three weeks after application.
Type: in vivo, wild oat (Avena fatua)
Procedure, shortened: as §1

Q: With `CCCC(=O)Oc1c(C)nn(C)c(=O)c1-c1c(-c2ccccc2Cl)sc2ccc(F)cc12` [2-204] as the molecule, how does the “herbicidal effect on I: wild oat (criteria 0-5)” value read?
A: The value was 3 (Herbicidal rate of 40% or more and less than 70%).

Each molecule was assayed on wild oat (assay: Test Example 4: herbicidal effect by soil treatment (Table 19, symbol I)). Settings: amount of applied herbicide 320 g/ha.
Type: in vivo, wild oat (Avena fatua)
Procedure, shortened: as §2

Q: With `CCCC(=O)Oc1c(C)nn(C)c(=O)c1-c1c(-c2ccccc2Cl)sc2ccc(F)cc12` [2-204] as the molecule, how does the “I: wild oat, herbicidal effect rating” value read?
A: The value was 0 (Herbicidal rate of 5% or less (almost no effect)).

What follows are molecules tested on blackgrass (assay: Test Example 5: herbicidal effect by foliage application, plastic box (Table 20, symbol J)). Settings: foliage application, 320 g/ha, evaluated three weeks after application.
Type: in vivo, blackgrass (Alopecurus myosuroides)
Procedure, shortened: as §1

Q: How did the “herbicidal effect on J: blackgrass (criteria 0-5)” value turn out when `CCCC(=O)Oc1c(C)nn(C)c(=O)c1-c1c(-c2ccccc2Cl)sc2ccc(F)cc12` [2-204] was run?
A: The value was 0 (Herbicidal rate of 5% or less (almost no effect)).

Each molecule was assayed on velvetleaf (assay: Test Example 5: herbicidal effect by foliage application, plastic box (Table 20, symbol M)). Settings: foliage application, 320 g/ha, evaluated three weeks after application.
Type: in vivo, velvetleaf (Abutilon theophrasti)
Procedure, shortened: as §1

Q: For `CCCC(=O)Oc1c(C)nn(C)c(=O)c1-c1c(-c2ccccc2Cl)sc2ccc(F)cc12` [2-204], which “herbicidal effect on M: velvetleaf (criteria 0-5)” value is on record?
A: Its value is 4 (Herbicidal rate of 70% or more and less than 90%).

The molecules below were run on chickweed (assay: Test Example 4: herbicidal effect by soil treatment (Table 19, symbol P)). Settings: amount of applied herbicide 320 g/ha.
Type: in vivo, common chickweed (Stellaria media)
Procedure, shortened: as §2

Q: For `CCCC(=O)Oc1c(C)nn(C)c(=O)c1-c1c(-c2ccccc2Cl)sc2ccc(F)cc12` [2-204], which “P: chickweed, herbicidal effect rating” value is on record?
A: The value was 3 (Herbicidal rate of 40% or more and less than 70%).

The molecules below were run on lambsquarters (assay: Test Example 5: herbicidal effect by foliage application, plastic box (Table 20, symbol O)). Settings: foliage application, 320 g/ha, evaluated three weeks after application.
Type: in vivo, lambsquarters (Chenopodium album)
Procedure, shortened: as §1

Q: `CCCC(=O)Oc1c(C)nn(C)c(=O)c1-c1c(-c2ccccc2Cl)sc2ccc(F)cc12` [2-204] was tested. Which “herbicidal effect on O: lambsquarters (criteria 0-5)” value did it give?
A: The value was 3 (Herbicidal rate of 40% or more and less than 70%).

The molecules below were run on Italian ryegrass (assay: Test Example 4: herbicidal effect by soil treatment (Table 19, symbol K)). Settings: amount of applied herbicide 320 g/ha.
Type: in vivo, Italian ryegrass (Lolium multiflorum)
Procedure, shortened: as §2

Q: `CCCC(=O)Oc1c(C)nn(C)c(=O)c1-c1c(-c2ccccc2Cl)sc2ccc(F)cc12` [2-204] was tested. Which “K: Italian ryegrass, herbicidal effect rating” value did it give?
A: The value was 0 (Herbicidal rate of 5% or less (almost no effect)).

Each molecule was assayed on barnyard grass (assay: Test Example 5: herbicidal effect by foliage application, plastic box (Table 20, symbol H)). Settings: foliage application, 320 g/ha, evaluated three weeks after application.
Type: in vivo, barnyard grass (Echinochloa crus-galli)
Procedure, shortened: as §1

Q: Which “herbicidal effect on H: barnyard grass (criteria 0-5)” value does the source give for `CCCC(=O)Oc1c(C)nn(C)c(=O)c1-c1c(-c2ccccc2Cl)sc2ccc(F)cc12` [2-204] here?
A: Its value is 0 (Herbicidal rate of 5% or less (almost no effect)).

What follows are molecules tested on persian speedwell (assay: Test Example 5: herbicidal effect by foliage application, plastic box (Table 20, symbol R)). Settings: foliage application, 320 g/ha, evaluated three weeks after application.
Type: in vivo, Persian speedwell (Veronica persica)
Procedure, shortened: as §1

Q: How did the “herbicidal effect on R: persian speedwell (criteria 0-5)” value turn out when `CCCC(=O)Oc1c(C)nn(C)c(=O)c1-c1c(-c2ccccc2Cl)sc2ccc(F)cc12` [2-204] was run?
A: Its value is 5 (Herbicidal rate of 90% or more (almost completely withered)).

These molecules were tested on southern crabgrass (assay: Test Example 4: herbicidal effect by soil treatment (Table 19, symbol F)). Settings: amount of applied herbicide 320 g/ha.
Type: in vivo, southern crabgrass (Digitaria ciliaris)
Procedure, shortened: as §2

Q: With `CCCC(=O)Oc1c(C)nn(C)c(=O)c1-c1c(-c2ccccc2Cl)sc2ccc(F)cc12` [2-204] as the molecule, how does the “F: southern crabgrass, herbicidal effect rating” value read?
A: The value was 0 (Herbicidal rate of 5% or less (almost no effect)).

These molecules were tested on persian speedwell (assay: Test Example 4: herbicidal effect by soil treatment (Table 19, symbol R)). Settings: amount of applied herbicide 320 g/ha.
Type: in vivo, Persian speedwell (Veronica persica)
Procedure, shortened: as §2

Q: For `CCCC(=O)Oc1c(C)nn(C)c(=O)c1-c1c(-c2ccccc2Cl)sc2ccc(F)cc12` [2-204], which “R: persian speedwell, herbicidal effect rating” value is on record?
A: Its value is 3 (Herbicidal rate of 40% or more and less than 70%).

What follows are molecules tested on windgrass (assay: Test Example 5: herbicidal effect by foliage application, plastic box (Table 20, symbol L)). Settings: foliage application, 320 g/ha, evaluated three weeks after application.
Type: in vivo, windgrass (Apera spica-venti)
Procedure, shortened: as §1

Q: How did the “herbicidal effect on L: windgrass (criteria 0-5)” value turn out when `CCCC(=O)Oc1c(C)nn(C)c(=O)c1-c1c(-c2ccccc2Cl)sc2ccc(F)cc12` [2-204] was run?
A: The value was 3 (Herbicidal rate of 40% or more and less than 70%).

The molecules below were run on barnyard grass (assay: Test Example 4: herbicidal effect by soil treatment (Table 19, symbol H)). Settings: amount of applied herbicide 320 g/ha.
Type: in vivo, barnyard grass (Echinochloa crus-galli)
Procedure, shortened: as §2

Q: For `CCCC(=O)Oc1c(C)nn(C)c(=O)c1-c1c(-c2ccccc2Cl)sc2ccc(F)cc12` [2-204], which “H: barnyard grass, herbicidal effect rating” value is on record?
A: Its value is 0 (Herbicidal rate of 5% or less (almost no effect)).

What follows are molecules tested on blackgrass (assay: Test Example 4: herbicidal effect by soil treatment (Table 19, symbol J)). Settings: amount of applied herbicide 320 g/ha.
Type: in vivo, blackgrass (Alopecurus myosuroides)
Procedure, shortened: as §2

Q: For `CCCC(=O)Oc1c(C)nn(C)c(=O)c1-c1c(-c2ccccc2Cl)sc2ccc(F)cc12` [2-204], which “J: blackgrass, herbicidal effect rating” value is on record?
A: The value was 0 (Herbicidal rate of 5% or less (almost no effect)).

The molecules below were run on redroot pigweed (assay: Test Example 5: herbicidal effect by foliage application, plastic box (Table 20, symbol N)). Settings: foliage application, 320 g/ha, evaluated three weeks after application.
Type: in vivo, redroot pigweed (Amaranthus retroflexus)
Procedure, shortened: as §1

Q: How did the “herbicidal effect on N: redroot pigweed (criteria 0-5)” value turn out when `CCCC(=O)Oc1c(C)nn(C)c(=O)c1-c1c(-c2ccccc2Cl)sc2ccc(F)cc12` [2-204] was run?
A: The value was 5 (Herbicidal rate of 90% or more (almost completely withered)).

Each molecule was assayed on rice flat sedge (assay: Test Example 3: herbicidal effect by foliage application, Wagner pot (Table 18, symbol E)). Settings: amount of applied herbicide 320 g/ha.
Type: in vivo, rice flat sedge (Cyperus iria)
Procedure, shortened: (§3)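 Plants were sown in alluvial soil held under 0.1–0.5 cm standing water and grown 14 days in a greenhouse at 25–30 °C. An emulsifiable formulation, water-diluted to the set dose, was then sprayed onto the foliage, and effects were scored three weeks later using previously defined criteria.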

Q: With `CCCC(=O)Oc1c(C)nn(C)c(=O)c1-c1c(-c2ccccc2Cl)sc2ccc(F)cc12` [2-204] as the molecule, how does the “herbicidal effect on E: rice flat sedge” value read?
A: The value was 3 (Herbicidal rate of 40% or more and less than 70%).

What follows are molecules tested on green foxtail (assay: Test Example 5: herbicidal effect by foliage application, plastic box (Table 20, symbol G)). Settings: foliage application, 320 g/ha, evaluated three weeks after application.
Type: in vivo, green foxtail (Setaria viridis)
Procedure, shortened: as §1

Q: For `CCCC(=O)Oc1c(C)nn(C)c(=O)c1-c1c(-c2ccccc2Cl)sc2ccc(F)cc12` [2-204], which “herbicidal effect on G: green foxtail (criteria 0-5)” value is on record?
A: The value was 5 (Herbicidal rate of 90% or more (almost completely withered)).

These molecules were tested on windgrass (assay: Test Example 4: herbicidal effect by soil treatment (Table 19, symbol L)). Settings: amount of applied herbicide 320 g/ha.
Type: in vivo, windgrass (Apera spica-venti)
Procedure, shortened: as §2

Q: `CCCC(=O)Oc1c(C)nn(C)c(=O)c1-c1c(-c2ccccc2Cl)sc2ccc(F)cc12` [2-204] was tested. Which “L: windgrass, herbicidal effect rating” value did it give?
A: The value was 0 (Herbicidal rate of 5% or less (almost no effect)).

These molecules were tested on Chinese sprangletop (assay: Test Example 3: herbicidal effect by foliage application, Wagner pot (Table 18, symbol D)). Settings: amount of applied herbicide 320 g/ha.
Type: in vivo, chinese sprangletop (Leptochloa chinensis)
Procedure, shortened: as §3

Q: How did the “herbicidal effect on D: Chinese sprangletop” value turn out when `CCCC(=O)Oc1c(C)nn(C)c(=O)c1-c1c(-c2ccccc2Cl)sc2ccc(F)cc12` [2-204] was run?
A: Its value is 3 (Herbicidal rate of 40% or more and less than 70%).

These molecules were tested on chickweed (assay: Test Example 5: herbicidal effect by foliage application, plastic box (Table 20, symbol P)). Settings: foliage application, 320 g/ha, evaluated three weeks after application.
Type: in vivo, common chickweed (Stellaria media)
Procedure, shortened: as §1

Q: How did the “herbicidal effect on P: chickweed (criteria 0-5)” value turn out when `CCCC(=O)Oc1c(C)nn(C)c(=O)c1-c1c(-c2ccccc2Cl)sc2ccc(F)cc12` [2-204] was run?
A: Its value is 5 (Herbicidal rate of 90% or more (almost completely withered)).

The molecules below were run on green foxtail (assay: Test Example 4: herbicidal effect by soil treatment (Table 19, symbol G)). Settings: amount of applied herbicide 320 g/ha.
Type: in vivo, green foxtail (Setaria viridis)
Procedure, shortened: as §2

Q: `CCCC(=O)Oc1c(C)nn(C)c(=O)c1-c1c(-c2ccccc2Cl)sc2ccc(F)cc12` [2-204] was tested. Which “G: green foxtail, herbicidal effect rating” value did it give?
A: Its value is 0 (Herbicidal rate of 5% or less (almost no effect)).

What follows are molecules tested on barnyard grass (assay: Test Example 3: herbicidal effect by foliage application, Wagner pot (Table 18, symbol H)). Settings: amount of applied herbicide 320 g/ha.
Type: in vivo, barnyard grass (Echinochloa crus-galli)
Procedure, shortened: as §3

Q: Which “herbicidal effect on H: barnyard grass” value does the source give for `CCCC(=O)Oc1c(C)nn(C)c(=O)c1-c1c(-c2ccccc2Cl)sc2ccc(F)cc12` [2-204] here?
A: The value was 4 (Herbicidal rate of 70% or more and less than 90%).

Reference: patent publication US20230085307A1, “PYRIDAZINONE COMPOUND AND HERBICIDE” (NISSAN CHEMICAL CORPORATION, priority 2019, published 2023)
